Results from PubChem BioAssay (NCI).
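Growth conditions: 96-well plates. Treatment: test compound, 48 hours, 5 concentrations. Analysis: linear interpolation between bracketing concentrations; unreached endpoints set to highest concentration. GI50 = concentration required for 50% inhibition of growth. The concentration for full growth arrest is given as TGI.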

Key:
Assay in all cases: NCI anticancer screen, dose series, 48 h
HS 578T breast = system: HS 578T breast
CAKI-1 renal = system: CAKI-1 renal
SK-MEL-2 melanoma = system: SK-MEL-2 melanoma
HT29 colon = system: HT29 colon
UACC-62 melanoma = system: UACC-62 melanoma
PC-3 prostate = system: PC-3 prostate
UO-31 renal = system: UO-31 renal
DU-145 prostate = system: DU-145 prostate
NCI-H226 lung = system: NCI-H226 lung
LOX IMVI melanoma = system: LOX IMVI melanoma
OVCAR-8 ovarian = system: OVCAR-8 ovarian
MCF7 breast = system: MCF7 breast
ACHN renal = system: ACHN renal
SK-OV-3 ovarian = system: SK-OV-3 ovarian
HCC-2998 colon = system: HCC-2998 colon
HCT-116 colon = system: HCT-116 colon
T-47D breast = system: T-47D breast
NCI/ADR-RES ovarian = system: NCI/ADR-RES ovarian
HL-60(TB) leukemia = system: HL-60(TB) leukemia
CCRF-CEM leukemia = system: CCRF-CEM leukemia
SW-620 colon = system: SW-620 colon
MOLT-4 leukemia = system: MOLT-4 leukemia
SR leukemia = system: SR leukemia
U251 CNS = system: U251 CNS
RPMI-8226 leukemia = system: RPMI-8226 leukemia
NCI-H460 lung = system: NCI-H460 lung
MDA-MB-435 = system: MDA-MB-435
COLO 205 colon = system: COLO 205 colon
SF-539 CNS = system: SF-539 CNS
786-0 renal = system: 786-0 renal
HOP-62 NSCLC = system: HOP-62 NSCLC
SNB-19 CNS = system: SNB-19 CNS
KM12 colon = system: KM12 colon
RXF 393 renal = system: RXF 393 renal
MALME-3M melanoma = system: MALME-3M melanoma
SK-MEL-5 melanoma = system: SK-MEL-5 melanoma
OVCAR-4 ovarian = system: OVCAR-4 ovarian
K-562 leukemia = system: K-562 leukemia
SNB-75 CNS = system: SNB-75 CNS
NCI-H23 lung = system: NCI-H23 lung
HCT-15 colon = system: HCT-15 colon
OVCAR-3 ovarian = system: OVCAR-3 ovarian
TK-10 renal = system: TK-10 renal
A498 renal = system: A498 renal
OVCAR-5 ovarian = system: OVCAR-5 ovarian
IGROV1 ovarian = system: IGROV1 ovarian
UACC-257 melanoma = system: UACC-257 melanoma
MDA-MB-231 breast = system: MDA-MB-231 breast
SN12C renal = system: SN12C renal
SF-268 CNS = system: SF-268 CNS
HOP-92 NSCLC = system: HOP-92 NSCLC
A549 NSCLC = system: A549 NSCLC
SK-MEL-28 melanoma = system: SK-MEL-28 melanoma
M14 melanoma = system: M14 melanoma
BT-549 breast = system: BT-549 breast

`COc1ccc(/C=C2\CCCC3=C2NC(C)=NC3c2ccc(OC)c(OC)c2)cc1OC` (stereo not given) was tested, and the GI50 (HS 578T breast) was 39.1 µM, the TGI (HS 578T breast) was > 100 µM and the GI50 (CAKI-1 renal) was 21.4 µM. For the same compound, the TGI (CAKI-1 renal) was > 100 µM, the GI50 (SK-MEL-2 melanoma) was 15.9 µM and the TGI (SK-MEL-2 melanoma) was > 100 µM. For the same compound, the GI50 (HT29 colon) was 21.7 µM, the TGI (HT29 colon) was > 100 µM and the GI50 (UACC-62 melanoma) was 12.9 µM. For the same compound, the TGI (UACC-62 melanoma) was > 100 µM, the GI50 (PC-3 prostate) was 37.4 µM and the TGI (PC-3 prostate) was > 100 µM. For the same compound, the GI50 (UO-31 renal) was 31.1 µM, the TGI (UO-31 renal) was > 100 µM and the GI50 (DU-145 prostate) was 16.5 µM. The TGI (DU-145 prostate) was > 100 µM, the GI50 (NCI-H226 lung) was 12.2 µM and the TGI (NCI-H226 lung) was 99.8 µM. For the same compound, the GI50 (LOX IMVI melanoma) was 51.1 µM, the TGI (LOX IMVI melanoma) was > 100 µM and the GI50 (OVCAR-8 ovarian) was 4.68 µM. For the same compound, the TGI (OVCAR-8 ovarian) was > 100 µM, the GI50 (MCF7 breast) was 2.44 µM and the TGI (MCF7 breast) was > 100 µM. The GI50 (ACHN renal) was 6.74 µM, the TGI (ACHN renal) was > 100 µM and the GI50 (SK-OV-3 ovarian) was 19.2 µM. The TGI (SK-OV-3 ovarian) was > 100 µM, the GI50 (HCC-2998 colon) was > 100 µM and the TGI (HCC-2998 colon) was > 100 µM. For the same compound, the GI50 (HCT-116 colon) was 2.39 µM, the TGI (HCT-116 colon) was 22.1 µM and the GI50 (T-47D breast) was 14.7 µM. For the same compound, the TGI (T-47D breast) was > 100 µM, the GI50 (NCI/ADR-RES ovarian) was 15.2 µM and the TGI (NCI/ADR-RES ovarian) was > 100 µM. The GI50 (HL-60(TB) leukemia) was 5.84 µM, the TGI (HL-60(TB) leukemia) was > 100 µM and the GI50 (CCRF-CEM leukemia) was 2.75 µM. The TGI (CCRF-CEM leukemia) was > 100 µM, the GI50 (SW-620 colon) was 7.69 µM and the TGI (SW-620 colon) was > 100 µM. For the same compound, the GI50 (MOLT-4 leukemia) was 24.8 µM, the TGI (MOLT-4 leukemia) was > 100 µM and the GI50 (SR leukemia) was 1.99 µM. For the same compound, the TGI (SR leukemia) was > 100 µM, the GI50 (U251 CNS) was 23.4 µM and the TGI (U251 CNS) was > 100 µM. It also gave a GI50 (RPMI-8226 leukemia) of 0.848 µM, a TGI (RPMI-8226 leukemia) of 56.3 µM and a GI50 (NCI-H460 lung) of 47.7 µM. For the same compound, the TGI (NCI-H460 lung) was > 100 µM, the GI50 (MDA-MB-435) was 1.05 µM and the TGI (MDA-MB-435) was > 100 µM. For the same compound, the GI50 (COLO 205 colon) was 5.5 µM, the TGI (COLO 205 colon) was > 100 µM and the GI50 (SF-539 CNS) was 27.5 µM. The TGI (SF-539 CNS) was > 100 µM, the GI50 (786-0 renal) was 33.7 µM and the TGI (786-0 renal) was > 100 µM. The GI50 (HOP-62 NSCLC) was 3.75 µM, the TGI (HOP-62 NSCLC) was 38.8 µM and the GI50 (SNB-19 CNS) was 67.1 µM. The TGI (SNB-19 CNS) was > 100 µM, the GI50 (KM12 colon) was 61.2 µM and the TGI (KM12 colon) was > 100 µM. For the same compound, the GI50 (RXF 393 renal) was 4.02 µM, the TGI (RXF 393 renal) was 16.3 µM and the GI50 (MALME-3M melanoma) was 22.2 µM. For the same compound, the TGI (MALME-3M melanoma) was > 100 µM, the GI50 (SK-MEL-5 melanoma) was 9.43 µM and the TGI (SK-MEL-5 melanoma) was > 100 µM. For the same compound, the GI50 (OVCAR-4 ovarian) was 12.4 µM, the TGI (OVCAR-4 ovarian) was > 100 µM and the GI50 (K-562 leukemia) was 4.54 µM. The TGI (K-562 leukemia) was > 100 µM, the GI50 (SNB-75 CNS) was 32 µM and the TGI (SNB-75 CNS) was > 100 µM. The GI50 (NCI-H23 lung) was 28.6 µM, the TGI (NCI-H23 lung) was > 100 µM and the GI50 (HCT-15 colon) was 3.52 µM. For the same compound, the TGI (HCT-15 colon) was > 100 µM, the GI50 (OVCAR-3 ovarian) was 5.47 µM and the TGI (OVCAR-3 ovarian) was > 100 µM. The GI50 (TK-10 renal) was 12.3 µM, the TGI (TK-10 renal) was 74.7 µM and the GI50 (A498 renal) was 16.4 µM. For the same compound, the TGI (A498 renal) was > 100 µM, the GI50 (OVCAR-5 ovarian) was 71 µM and the TGI (OVCAR-5 ovarian) was > 100 µM. For the same compound, the GI50 (IGROV1 ovarian) was 50.6 µM, the TGI (IGROV1 ovarian) was > 100 µM and the GI50 (UACC-257 melanoma) was 10.9 µM. For the same compound, the TGI (UACC-257 melanoma) was > 100 µM, the GI50 (MDA-MB-231 breast) was 12.9 µM and the TGI (MDA-MB-231 breast) was 75.3 µM. The GI50 (SN12C renal) was 63.9 µM, the TGI (SN12C renal) was > 100 µM and the GI50 (SF-268 CNS) was 21 µM. The TGI (SF-268 CNS) was > 100 µM, the GI50 (HOP-92 NSCLC) was 18.9 µM and the TGI (HOP-92 NSCLC) was 92.6 µM. For the same compound, the GI50 (A549 NSCLC) was 53.7 µM, the TGI (A549 NSCLC) was > 100 µM and the GI50 (SK-MEL-28 melanoma) was > 100 µM. The TGI (SK-MEL-28 melanoma) was > 100 µM, the GI50 (M14 melanoma) was 18.6 µM and the TGI (M14 melanoma) was > 100 µM. The GI50 (BT-549 breast) was 23.7 µM and the TGI (BT-549 breast) was > 100 µM.
